The text below walks through data of US12304894B2, “Derivatives of adamantyl oxadiazoles and pharmaceutically acceptable solvates, hydrates and salts thereof, pharmaceutical composition comprising same, synthesis method, suitable for use as effective and selective inhibitors of the reductase activity of the enzyme 11-beta dehydrogenase type 1 …” (PONTIFICIA UNIVERSIDAD CATOLICA DE CHILE, priority 2019, dated 2025).

Holding throughout (assay type): biochemical
For assay [1], the target named is T1, recombinant 11β-HSD1 enzyme (Homo sapiens (Human), UniProt P28845). In words: 11β-HSD1 oxidase activity (HTRF Cortisol Kit). As to conditions: for 11b-HSD1 oxidase (activ rem %) 100 nM: remaining activity at 100 nM compound; for 11b-HSD1 oxidase (activ rem %) 100 uM: remaining activity at 100 uM compound. The protocol:
Determination of 11β-HSD1 Oxidase Activity
The Cortisol Kit (Cisbio) product was used for that purpose.
For the analysis, the compounds are reconstituted in DMSO in a stock of 10 mM concentration, from which serial dilutions were prepared for the efficiency curve.
The recombinant 11β-HSD1 enzyme dilutions were prepared in 20 mM Tris Buffer 5 mM EDTA pH 6.0 (Tris buffer).
Initially, the enzyme concentration to be used was determined. For this purpose, a plate for HRTF was prepared with Tris buffer with 100 nM cortisol and 200 μM NADP+, including in the wells of the plate for HTRF together with the enzyme in a 4:1 ratio, respectively, and incubated for 2 hours at 37° C. After this time, the reagents of the Cortisol kit, Cortisol d2 and Cortisol cryptate in sample ratio, Cortisol d2 and cortisol cryptate 2:1:1 were added, incubating this new reaction for 1 hour at room temperature. Subsequently, the fluorescence was determined at 665 and 620 nm.
An HRTF plate was again prepared, where the reaction buffer, the recombinant 11β-HSD1 enzyme and the compound were added in each well in a 3:1:1 ratio, respectively. The plate was incubated at 37° C. for 2 hours. After the incubation time, the reagents of the cortisol kit, cortisol d2 and cortisol cryptate, were added as indicated above. They were then incubated at room temperature for 1 hour to finally read the fluorescence at 665 and 620 nm.

In assay [2] the target is T1, recombinant 11β-HSD1 enzyme. In words: 11β-HSD1 reductase activity (HTRF Cortisol Kit). Particulars: 266 nM cortisone, 333 μM NADPH, read-out: 11b-HSD1 reductase (HTRF) IC50. On the procedure:
Determination of 11β-HSD1 Reductase Activity
First, stock solutions of the compounds were prepared in DMSO at a concentration of […], of which serial dilutions were made in order to determine the efficacy curve.
As for the recombinant 11β-HSD1 enzyme (Cayman Chemical, MI, USA; Item No. 10007815), it was prepared in Tris Buffer 20 mM EDTA 5 mM pH 6.0 (Tris buffer) at different dilutions.
Initially, the enzyme concentration to be used in the assays in order to evaluate the biological activity of the compounds was determined. The Cortisol Kit product (Cisbio, MA, USA; Cat no. 62CRTPEG) was used for that purpose.
The protocol consisted of preparing the reaction buffer, adding 266 nM cortisone and 333 μM NADPH in Tris buffer. Then, this reaction buffer is added to the wells of the HTRF (Homogeneous Time Resolved Fluorescence) reaction plate together with the enzyme in a 4:1 ratio respectively, and incubated for 2 hours at 37° C. In the case of the control wells, two wells with Tris buffer were added, without compounds.
After the incubation time, the reagents of the Cortisol kit were added, Cortisol d2 and Cortisol cryptate in sample ratio, Cortisol d2 and cortisol cryptate 2:1:1, in a quantity according to the size of the well as indicated by the supplier (for the negative control of the kit, the cortisol d2 is replaced by the kit's reconstitution buffer). This reaction is incubated for 1 hour at room temperature in order to later read the fluorescence at 665 and 620 nm.
Once the enzyme concentration to be used has been determined, the cortisol kit protocol is continued to determine the efficacy curve for the compounds. As previously done, a plate for HTRF was prepared adding to each well of the reaction buffer, the recombinant 11β-HSD1 enzyme and the compounds to be assayed in a 3:1:1 ratio, respectively. The plate was subsequently incubated at 37° C. for 2 hours.
After the incubation time, the reagents of the cortisol kit, cortisol d2 and cortisol cryptate, are added, and were incubated again for 1 hour at room temperature. Finally, the fluorescence of each well was determined at 665 and 620 nm.
For orientation: Time-resolved FRET reads energy transfer from a long-lived donor to a nearby acceptor.

The subject of assay [3] is 11β-HSD2. In words: 11β-HSD2 oxidase activity in human hepatic microsomes (HTRF Cortisol Kit). Particulars: remaining activity at 100 nM compound. The protocol: Determination of 11β-HSD2 Oxidase Activity
The concentration of cortisone produced in the reaction, with and without the compounds, was determined using the Cortisol Kit (Cisbio) product in order to evaluate the 11β-HSD2 oxidase activity.
As in the previous assays, the compounds are reconstituted in DMSO to 10 mM stock, in order to subsequently make serial dilutions to determine the efficacy curve.
To perform the assay, the HTRF plate was prepared containing Tris buffer, 100 nM cortisol and 200 μM NAD^+. Enzyme is added to the corresponding wells in a 4:1 ratio, respectively, and incubated for 2 hours at 37° C. For the kit control, two wells are added only with Tris buffer.
After the incubation time, the reagents of the Cortisol kit, Cortisol d2 and Cortisol cryptate, in a sample ratio, Cortisol d2 and cortisol cryptate 2:1:1 are added. For the negative control, cortisol d2 was replaced in some wells by the kit's reconstitution buffer. The plate was incubated for 1 hour at room temperature to later read at 665 and 620 nm.
For this purpose, the reaction buffer was prepared and subsequently, in a plate for HTRF, the reaction buffer, the microsomes in a concentration of 5 mg/mL and the compound in a ratio of 3:1:1, respectively, were added to each well. In the case of reaction controls, the reaction buffer without cortisol and without compound is included for the negative control. For the positive control, no compound is added, and for the kit controls, only the reaction buffer is added to the negative and positive control wells.
After incubating the plate for 2 hours, the reagents of the cortisol kit, cortisol d2 and cortisol cryptate, are added to the corresponding wells as indicated above. They are then incubated at room temperature for 1 hour to finally read the 665 and 620 nm fluorescence.

T1 sequence (P28845 whole entry): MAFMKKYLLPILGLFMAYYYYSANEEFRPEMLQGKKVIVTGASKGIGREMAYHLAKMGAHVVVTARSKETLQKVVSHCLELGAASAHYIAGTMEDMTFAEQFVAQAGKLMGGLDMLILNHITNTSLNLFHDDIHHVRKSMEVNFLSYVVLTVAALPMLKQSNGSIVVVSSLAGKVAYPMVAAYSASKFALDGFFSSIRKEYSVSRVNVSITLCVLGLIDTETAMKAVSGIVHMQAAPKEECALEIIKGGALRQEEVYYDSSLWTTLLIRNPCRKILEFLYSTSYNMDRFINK

One may read the IC50 as the point on the concentration scale where inhibition reaches its midpoint. In the case of `c1ccc(CCc2nc(C34CC5CC(CC(C5)C3)C4)no2)cc1` [BD-31, 1-phenyl-2-(3-adamantyl-1,2,4-oxadiazol-5-yl)ethane], in assay [1], the “11b-HSD1 oxidase (activ rem %) 100 nM” value was determined as 86.1% and the “11b-HSD1 oxidase (activ rem %) 100 uM” value was 86.20%. In addition, the IC50 in assay [2] amounted to 147 nM. Moreover, in assay [3], the “11b-HSD2 oxidase (activ rem %) Microcosms 100 nM” value worked out at 55.4%.

With `COc1ccc(CCc2nc(C34CC5CC(CC(C5)C3)C4)no2)cc1` [BD-32, 1-(4-methoxyphenyl)-2-(3-adamantyl-1,2,4-oxadiazol-5-yl)ethane], in assay [1], the “11b-HSD1 oxidase (activ rem %) 100 nM” value was found to be 104.1% and the “11b-HSD1 oxidase (activ rem %) 100 uM” value worked out at 62.7%. The IC50 in assay [2] stood at 95.4 nM. The “11b-HSD2 oxidase (activ rem %) Microcosms 100 nM” value in assay [3] stood at 60.0%.

With `Clc1ccc(CCc2nc(C34CC5CC(CC(C5)C3)C4)no2)cc1` [BD-33, 1-(4-chlorophenyl)-2-(3-adamantyl-1,2,4-oxadiazol-5-yl)ethane], in assay [1], the “11b-HSD1 oxidase (activ rem %) 100 nM” value came to 107.0% and the “11b-HSD1 oxidase (activ rem %) 100 uM” value turned out to be 75.4%. Moreover, in assay [2], the IC50 was determined as 9.2 nM. Besides, the “11b-HSD2 oxidase (activ rem %) Microcosms 100 nM” value in assay [3] is 59.4%.

In the case of `Fc1ccc(CCc2nc(C34CC5CC(CC(C5)C3)C4)no2)cc1` [BD-34, 1-(4-fluorophenyl)-2-(3-adamantyl-1,2,4-oxadiazol-5-yl)ethane], in assay [1], the “11b-HSD1 oxidase (activ rem %) 100 nM” value was 109.0% and the “11b-HSD1 oxidase (activ rem %) 100 uM” value was 77.2%. For the same compound, in assay [2], the IC50 was 104 nM. Moreover, the “11b-HSD2 oxidase (activ rem %) Microcosms 100 nM” value in assay [3] was found to be 68.8%.

Consider `Brc1ccc(CCc2nc(C34CC5CC(CC(C5)C3)C4)no2)cc1` [BD-35, 1-(4-bromophenyl)-2-(3-adamantyl-1,2,4-oxadiazol-5-yl)ethane], for which, in assay [1], the “11b-HSD1 oxidase (activ rem %) 100 nM” value was 91.3% and the “11b-HSD1 oxidase (activ rem %) 100 uM” value came out at 104.0%. In assay [2], the IC50 was determined as 9.9 nM. In addition, in assay [3], the “11b-HSD2 oxidase (activ rem %) Microcosms 100 nM” value came out at 79.5%.

Take `Cc1ccc(CCc2nc(C34CC5CC(CC(C5)C3)C4)no2)cc1` [BD-36, 1-(4-methylphenyl)-2-(3-adamantyl-1,2,4-oxadiazol-5-yl)ethane]: in assay [1], the “11b-HSD1 oxidase (activ rem %) 100 nM” value turned out to be 110.3% and the “11b-HSD1 oxidase (activ rem %) 100 uM” value came to 95.3%. In assay [2], the 50% inhibitory concentration (IC50) was determined as 102 nM. Moreover, the “11b-HSD2 oxidase (activ rem %) Microcosms 100 nM” value in assay [3] amounted to 40.1%.

On to `Oc1ccc(CCc2nc(C34CC5CC(CC(C5)C3)C4)no2)cc1` [BD-37, 1-(4-hydroxyphenyl)-2-(3-adamantyl-1,2,4-oxadiazol-5-yl)ethane], for which, in assay [1], the “11b-HSD1 oxidase (activ rem %) 100 nM” value came to 109.6% and the “11b-HSD1 oxidase (activ rem %) 100 uM” value worked out at 88.1%. In addition, the half-inhibitory concentration (IC50) in assay [2] amounted to 1.1 nM. The “11b-HSD2 oxidase (activ rem %) Microcosms 100 nM” value in assay [3] was 58.3%.

As to `COc1cccc(CCc2nc(C34CC5CC(CC(C5)C3)C4)no2)c1` [BD-38, 1-(3-methoxyphenyl)-2-(3-adamantyl-1,2,4-oxadiazol-5-yl)ethane], in assay [1], the “11b-HSD1 oxidase (activ rem %) 100 nM” value is given as 88.1% and the “11b-HSD1 oxidase (activ rem %) 100 uM” value is 100.5%. For the same compound, the concentration for half-maximal inhibition (IC50) in assay [2] was determined as 102 nM. In addition, the “11b-HSD2 oxidase (activ rem %) Microcosms 100 nM” value in assay [3] is 61.9%.

On to `c1cc(CCc2nc(C34CC5CC(CC(C5)C3)C4)no2)ccn1` [BD-39, 1-(4-pyridyl)-2-(3-adamantyl-1,2,4-oxadiazol-5-yl)ethane], for which, in assay [1], the “11b-HSD1 oxidase (activ rem %) 100 nM” value is 89.4% and the “11b-HSD1 oxidase (activ rem %) 100 uM” value was 75.3%. For the same compound, in assay [2], the IC50 came out at 97 nM. The “11b-HSD2 oxidase (activ rem %) Microcosms 100 nM” value in assay [3] was determined as 59.2%.

Turning to `CC(C)(C)c1ccc(CCc2nc(C34CC5CC(CC(C5)C3)C4)no2)cc1` [BD-41, 1-(4-tert-butylphenyl)-2-(3-adamantyl-1,2,4-oxadiazol-5-yl)ethane], in assay [1], the “11b-HSD1 oxidase (activ rem %) 100 nM” value was 85.9% and the “11b-HSD1 oxidase (activ rem %) 100 uM” value stood at 86.1%. In addition, the IC50 in assay [2] is 102 nM. For the same compound, the “11b-HSD2 oxidase (activ rem %) Microcosms 100 nM” value in assay [3] was 49.7%.

Turning to `Fc1cccc(CCc2nc(C34CC5CC(CC(C5)C3)C4)no2)c1` [BD-42, 1-(3-fluorophenyl)-2-(3-adamantyl-1,2,4-oxadiazol-5-yl)ethane], in assay [1], the “11b-HSD1 oxidase (activ rem %) 100 nM” value is given as 83.0% and the “11b-HSD1 oxidase (activ rem %) 100 uM” value came out at 89.8%. For the same compound, the IC50 in assay [2] stood at 92 nM. For the same compound, in assay [3], the “11b-HSD2 oxidase (activ rem %) Microcosms 100 nM” value came to 59.2%.

Consider `c1ccc(CCc2nc(C34CC5CC(CC(C5)C3)C4)no2)nc1` [BD-45, 1-(2-pyridyl)-2-(3-adamantyl-1,2,4-oxadiazol-5-yl)ethane], for which, in assay [1], the “11b-HSD1 oxidase (activ rem %) 100 nM” value was determined as 97.4%. Besides, the IC50 in assay [2] came to 1.1 nM. Moreover, the “11b-HSD2 oxidase (activ rem %) Microcosms 100 nM” value in assay [3] is given as 70.2%.

With `O=[N+]([O-])c1ccc(CCc2nc(C34CC5CC(CC(C5)C3)C4)no2)cc1` [BD-46, 1-(4-nitrophenyl)-2-(3-adamantyl-1,2,4-oxadiazol-5-yl)ethane], in assay [1], the “11b-HSD1 oxidase (activ rem %) 100 nM” value amounted to 104.6% and the “11b-HSD1 oxidase (activ rem %) 100 uM” value came to 65.4%. The 50% inhibitory concentration (IC50) in assay [2] turned out to be 24 nM. Further, in assay [3], the “11b-HSD2 oxidase (activ rem %) Microcosms 100 nM” value is 62.0%.
